system: P. falciparum 3D7 growth, pLDH absorbance; test: P. falciparum 3D7 growth inhibition, dose response, strain 3D7 (AID 2305)

Row | SMILES | IC50 [µM]
1 | N#CC1(CCCNCCc2ccc(O)cc2)CCCc2c(O)cccc21 (centres undefined) | 0.76
2 | CC1(C)N=C(N)N=C(N)N1OCc1ccc2ccccc2c1CON1C(N)=NC(N)=NC1(C)C | 0.66
3 | CCCCNCc1ccc(OCc2cccc(COc3ccc(CNCCCC)cc3)c2)cc1 | 0.32
4 | O=C(NC1CC1)c1ccc(N2CCCCN2CCc2ccccc2)c(C(F)(F)F)c1 | 0.62
5 | CC1CCc2c(C(=O)N3CCc4ccccc4C3)csc2C1 (centres undefined) | 0.78
6 | O=C(NCCCN1CCC(N2CCCCC2)CC1)C1=Cc2cc(Br)ccc2OC1 | 0.85
7 | CCCCc1ccc(-c2ccc(-c3c(C)[nH]c(C)c(Br)c3=O)cn2)cc1 | 0.06
8 | CC1(C)N=C(N)N=C(N)N1OCCNCc1ccc(Cl)cc1 | 0.16
9 | CC(C)(C)c1ccc(CN2CCC(NC(=O)c3ccc(-c4cccc(F)c4)s3)CC2)cc1 | 1.09
10 | Cc1[nH]c(C)c(-c2ccc(-c3cccc(Cl)c3)nc2)c(=O)c1Cl | 0.19
11 | CN1CCN(Cc2ccc(-c3ccc4c(Nc5cc(O)c(Cl)cc5F)ccnc4c3)o2)CC1 | 0.11
12 | COc1ccc2nccc([C@@H](O)CN3CCC(NCCOc4cccc(C(F)(F)F)c4Cl)CC3)c2c1 | 0.15
13 | CC[C@H]1CN2CC[C@H]1C[C@H]2[C@H](O)c1cc(-c2ccc(F)cc2C)nc2ccc(OC)cc12 | 0.16
14 | C=CCc1ccccc1OCC(O)CN(C1CCCCC1)C1CCCCC1 (centres undefined) | 0.81
15 | Cc1cnc(N2CCN(CCCN3CCCC3)CC2)nc1Oc1ccc(-n2ccnc2)cc1 | 0.9
16 | CCOc1ccc2nc3cc(NC(=O)c4ccco4)ccc3c(N)c2c1 | 0.8
17 | COc1ccc(Nc2nc(C)cc(NCc3ccc(-c4c(C)noc4C)cc3)n2)cc1 | 0.84
18 | CCn1c(-c2nonc2N)nc2c(C#CC(C)(C)O)ncc(OCCNCCc3ccc(OC)cc3)c21 | 0.96
19 | CN(C)Cc1cccc(-c2cnc(N)c(-c3nc4ccc(S(C)(=O)=O)cc4[nH]3)c2)c1 | 0.89
20 | CC[C@H]1CN2CC[C@H]1C[C@H]2[C@H](O)c1cc(-c2ccccc2F)nc2ccc(OC)cc12 | 0.08
21 | FC(F)(F)c1ccc2nc(-c3cccc(-c4cccc(CNCCN5CCNCC5)c4)c3)[nH]c2c1 | 0.94
22 | O=C(O)c1cccc2c(-c3ccncc3)cccc12 | 0.94
23 | O=C(Nc1cc(C(F)(F)F)ccc1N1CCOCC1)C(Cl)(Cl)Cl | 0.37
24 | O=C(NCCN1CCCC1)c1cccc(-c2ccc(-c3nc4ccc(C(F)(F)F)cc4[nH]3)cc2)c1 | 0.75
25 | OC1(c2ccc(Cl)c(C(F)(F)F)c2)CCN(CCOC2c3ccccc3CSc3ccc(Cl)cc32)CC1 (centres undefined) | 0.8

Row | SMILES | IC50 [µM]
26 | Oc1ccc(CCNc2nc(NCc3cccc(-c4cc(C(F)(F)F)ccc4Cl)c3)nc(N3CCNCC3)n2)cc1 | 1.78
27 | CN1CC=C(c2c[nH]c3ccc(Oc4ccccc4)cc23)CC1 | 0.25
28 | COc1ccc2c(=O)c(I)c(C)[nH]c2c1 | 0.44
29 | CC(C)C[C@H](NC(=O)c1cccc(F)c1)C(=O)N[C@H](/C=N/NC(=O)c1ccccc1)CCc1ccccc1 | 0.71
30 | CCCCCn1c(Sc2ccc(C#N)c([N+](=O)[O-])c2)nnc1-c1ccc(Cl)cc1 | 1.08
31 | CN(C)Cc1ccc(-c2cc3c(Nc4ccc(OCc5cccc(F)c5)c(Cl)c4)ncnc3s2)[nH]1 | 0.82
32 | COc1cc(CCNC(=O)Cc2ccc3ccccc3c2)ccc1OCc1ccccc1 | 1.02
33 | CCCN(c1ccc(C(F)(F)F)cc1[N+](=O)[O-])S(=O)(=O)C(c1ccccc1)c1ccc(C(F)(F)F)cc1[N+](=O)[O-] (centres undefined) | 1.22
34 | O=C(C=Cc1ccc(Cl)c(Cl)c1)NCCCCCN1CCCC(CCCNC(=O)c2sc3ccccc3c2Cl)C1 (centres undefined) | 1.03
35 | CCC(=O)c1cc(C(=O)NCCc2cccc(OC)c2)ccc1OC | 0.9
36 | CCN1CCCC(Nc2ccnc3cc4ccccc4cc23)C1 (centres undefined) | 0.1
37 | Cc1cc(NCCCCCCNc2cc(C)nc3c(C)cccc23)c2cccc(C)c2n1 | 0.41
38 | CCCCN1CC[C@@H](CCC(O)c2cc(OCCC)nc3ccc(OC)cc23)[C@@H](CC)C1 (some centres undefined) | 0.36
39 | Cc1cccc2[nH]c(C3CCN(CC4CCN(C(=O)/C=C/c5ccc(Cl)c(Cl)c5)CC4)CC3)nc12 | 0.48
40 | CC(C)c1ccc(CN2CCC(CNC(=O)c3cc(-c4cccc(F)c4)cs3)C2)cc1 (centres undefined) | 1.66
41 | O=C(NC1CCN(CCN2CCC(c3c[nH]c4ccccc34)CC2)CC1)c1ccc(-c2ccc(C(F)(F)F)cc2)cc1 | 0.2
42 | CC(C)(CNC(=O)C1CCN(CCOCc2ccccc2)CC1)c1nc(-c2ccc(Cl)c(O)c2)c(-c2ccncc2)[nH]1 | 0.62
43 | O=C(NC1CCN(Cc2ccccc2)CC1)c1cc(C(=O)NC2CCN(Cc3ccccc3)CC2)cc(C(=O)NC2CCN(Cc3ccccc3)CC2)c1 | 1.04
44 | N/C(=N\c1ncccn1)Nc1cccc(Cc2ccccc2)n1 | 0.93
45 | O=C(/C=C/c1ccc(F)c(Br)c1)NCCCCCN1CCC(c2c[nH]c3ccccc23)CC1 | 0.86
46 | C=C[C@H]1CN2CC[C@H]1C[C@@H]2[C@@H](O)c1ccnc2ccc(OC)cc12 | 0.12
47 | O=C(Cn1nc(Br)nc1[N+](=O)[O-])NCC1CCCCC1 | 1.1
48 | COCCNC(=O)C1CCN(C(c2ccc(Cl)cc2)c2ccc(Cl)cc2)CC1 | 0.55
49 | N#Cc1cc(C(=O)Nc2ccccc2)c(N)nc1SCC(=O)NC(c1ccccc1)c1cccs1 (centres undefined) | 0.61
50 | CC(C)N1CCN(C(CN2CCN(CCCOc3ccc4nonc4c3)CC2)c2ccc(F)cc2)CC1 (centres undefined) | 0.8

Row | SMILES | IC50 [µM]
51 | O=C(N1CCN(c2ccnc3cc4c(cc23)N(Cc2ccccc2)CC4)CC1)C(F)(F)F | 0.26
52 | N#Cc1cccc(Nc2nccc(NCC(O)c3ccc(C(F)(F)F)cc3)n2)c1 (centres undefined) | 0.56
53 | O=c1cc(NCCCNCc2scc3c(Cl)cc(C(F)(F)F)nc23)[nH]c2ccccc12 | 0.75
54 | O=C(/C=C/c1ccc(Cl)c(Cl)c1)NCCCCCCN1CCCN(C(=O)Nc2ccc(Cl)c(Cl)c2)CC1 | 0.67
55 | Cc1cc(NC(=O)CCN2CCN(c3cccc(Cl)c3Cl)CC2)ccc1N1CCN(C(C)C)CC1 | 0.85
56 | Cc1cccc2[nH]c(-c3ccc(-c4cccc(NC(=O)COc5ccccc5C(N)=O)c4)s3)nc12 | 0.73
57 | O=C(CC(=O)C(F)(F)F)c1ccc2c(c1)OCO2 | 0.74
58 | CN1CCN(Cc2ccc(-c3ccc4c(Nc5ccc(F)cc5Cl)ccnc4c3)o2)CC1 | 0.14
59 | CCCC1N=C(N)N=C(N)N1c1cccc(C(F)(F)F)c1 (centres undefined) | 0.59
60 | COc1ccc(-c2cc3ncnc(N4CCN(CCN5CCCC5)CC4)c3s2)cc1 | 0.83
61 | CN1CCN(Cc2ccc(-c3ccc4c(Nc5ccc(Oc6ccccc6)cc5)ccnc4c3)o2)CC1 | 0.18
62 | Cc1c(C)c2c(c(C)c1O)CC[C@@](C)(C(=O)NC1CCC(CN3CCC(c4c[nH]c5ccccc45)CC3)CC1)O2 (some centres undefined) | 0.96
63 | CCCc1cc(NC2CCN(C)CC2)nc(Nc2ccc(C)cc2)n1 | 0.9
64 | CS(=O)(=O)Cc1ccc(Nc2nccc(-c3c(-c4cccc(NC(=O)c5c(F)cccc5F)c4)nn4ccccc34)n2)cc1 | 0.15
65 | CC(C)CN(c1nc(C(=O)NNC(=O)[C@H](CC2CC2)NC(=O)c2cc3cc(OCCN(C)C)ccc3o2)cs1)C1CC1 | 1.03
66 | CCCc1cc(C(=O)N[C@@H](Cc2ccccc2)[C@H](O)CNC(C)(C)c2cccc(OC)c2)c(F)c(N2CCCC2=O)c1 | 0.1
67 | Cc1nn(-c2ccccc2)c2c1C(c1ccc(C(C)C)cc1)N1C(=N2)N(Cc2ccccc2)c2ccccc21 (centres undefined) | 0.78
68 | COc1ccc(CCNCc2ccc3nc(N)cc(C)c3c2)cc1 | 0.21
69 | CC[C@H](C)CNC(=O)c1cncc(-c2ccc(CNC3CCCC3)cc2)c1 | 1.12
70 | CON(CCCN(C)C)C(=N)N | 1.08
71 | Cc1cc(N(C)CCCN(C)C)nc(Nc2ccc(Br)cc2)n1 | 0.64
72 | COc1ccc2nccc([C@@H](O)CN3CCC(NCCOc4cc(F)cc(F)c4)CC3)c2c1 | 0.16
73 | Cc1cc(NN=Cc2cccc([N+](=O)[O-])c2)c2ccc(C(F)(F)F)cc2n1 | 0.88
74 | Cc1cccc2nc(C(=O)Nc3nc(CN4CCC(C)CC4)cs3)cn12 | 0.76
75 | O=C(C=Cc1ccc(Cl)c(Cl)c1)NCCCCCN1CCC(c2[nH]nc3ccccc23)CC1 | 0.64

Row | SMILES | IC50 [µM]
76 | CCc1cc(NC2CCN(C)CC2)nc(Nc2ccc(C)cc2)n1 | 0.69
77 | CN1CCN(CC2(Nc3nccc(NCc4ccc(Cl)cc4Cl)n3)CCCCC2)CC1 | 0.59
78 | C[C@H](Cc1ccc(OCCCCCCOc2ccc(C[C@@H](C)NC(=O)[C@H](O)c3cccc(Cl)c3)cc2)cc1)NC[C@H](O)c1cccc(Cl)c1 | 0.38
79 | COc1cc(Cc2cnc(N)nc2N)cc(OCCCCCCN2C(=O)c3ccccc3C2=O)c1OC | 1.1
80 | CC(CN)OCn1cnc2c(N)ncnc21 (centres undefined) | 0.23
81 | CCCN(CCC)C(=O)c1cc(C(=O)N[C@@H](Cc2ccccc2)[C@H](O)CNC(C)(C)c2cccc(OC)c2)cc(N2CCCCS2(=O)=O)c1 | 0.03
82 | Cc1ccn2c(N(Cc3ccccc3)C(=O)c3ccc(Cl)c(Cl)c3)c(-c3ccccc3)nc2c1 | 0.99
83 | CCC1CN2CCc3c([nH]c4ccccc34)C2CC1CC1=NCCc2c1[nH]c1ccccc21 (centres undefined) | 0.74
84 | COCCN1CCC(N(Cc2ccc(-c3ccc(OC(F)(F)F)cc3)cc2)C(=O)Cn2c(CCc3cccc(F)c3F)cc(=O)c3ccccc32)CC1 | 1.21
85 | Cc1c(F)cc(C(=O)NC2CC2)cc1-c1ccc2c(cnn2S(=O)(=O)c2cccs2)c1 | 0.86
86 | COc1ccc2ncc(F)c(CCN3CCC(CNCc4cccc5c4OCO5)CC3)c2n1 | 0.93
87 | Cc1cccc2[nH]c(-c3cccc(-c4ccc(NC(=O)c5cccnc5)cc4)c3)nc12 | 0.59
88 | NC(=O)c1c(Cl)nc2ccccc2c1Cl | 0.96
89 | O=C(NCc1ccc(F)cc1)Nc1ccc(-c2cccc(-c3nc4ccc(F)cc4[nH]3)c2)cc1 | 1.12
90 | Cc1cc(Nc2ccnc(-c3ccc(Cl)cc3)n2)ccn1 | 1.04
91 | CCCCCCCn1c2c(c(=N)c3c1CCC3)CCCC2 | 0.1
92 | Cc1cccc2[nH]c(-c3ccc(-c4cccc(NC(=O)C(C)CN(C)C)c4)s3)nc12 (centres undefined) | 0.72
93 | Cc1cc(C)cc(N2C(N)=NC(N)=NC2(C)C)c1 | 0.04
94 | O=C(Nc1ccc2c(c1)CNCC2)c1ccc(-c2ccc(Cl)cc2)cc1 | 0.66
95 | CCCN1CCN(CCCNC(=O)c2cc3c(-c4ccc(Cl)cc4)nn(C)c3s2)CC1 | 1.1
96 | COc1cc2[nH]c(-c3ccc(O)cc3)c(C)c(=O)c2c(OC)c1OC | 0.72
97 | COc1cccc(-c2csc(C(=O)NCC3CCN(Cc4ccc(C(C)(C)C)cc4)C3)c2)c1 (centres undefined) | 1.18
98 | Cc1cc(N2CCC(NS(=O)(=O)c3ccccc3)CC2)nc(Nc2cccc(C#N)c2)n1 | 1.35
99 | CCCCc1nc2nc(N)nc(N)c2cc1CCC | 0.31
